From BindingDB's records for doi:10.1016/j.bioorg.2015.09.009 (Quaid-I-Azam University, 2015)

Columns and labels:
[1] = molecular target: Acetylcholinesterase (Electrophorus electricus, UniProt O42275); test: AChE and BChE Inhibitory Activities
[2] = molecular target: Carboxylic ester hydrolase (Equus caballus, UniProt Q9N1N9); test: AChE and BChE Inhibitory Activities
Sequence of Carboxylic ester hydrolase (Q9N1N9 whole entry): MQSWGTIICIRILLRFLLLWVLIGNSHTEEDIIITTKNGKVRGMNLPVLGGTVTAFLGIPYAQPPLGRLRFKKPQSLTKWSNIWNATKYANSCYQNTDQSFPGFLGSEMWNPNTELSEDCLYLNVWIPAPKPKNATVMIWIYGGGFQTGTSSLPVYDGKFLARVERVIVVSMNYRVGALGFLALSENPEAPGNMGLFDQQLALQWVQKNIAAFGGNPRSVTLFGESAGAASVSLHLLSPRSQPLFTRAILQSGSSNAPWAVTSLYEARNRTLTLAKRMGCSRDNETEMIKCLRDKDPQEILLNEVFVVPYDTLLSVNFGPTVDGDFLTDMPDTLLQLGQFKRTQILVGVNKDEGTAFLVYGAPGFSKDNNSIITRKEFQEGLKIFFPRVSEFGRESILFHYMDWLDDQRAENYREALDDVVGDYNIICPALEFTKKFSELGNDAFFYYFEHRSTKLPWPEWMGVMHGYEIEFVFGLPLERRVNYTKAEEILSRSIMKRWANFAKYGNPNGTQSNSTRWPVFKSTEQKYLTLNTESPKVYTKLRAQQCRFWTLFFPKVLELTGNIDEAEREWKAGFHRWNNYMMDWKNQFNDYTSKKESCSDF

Sequence of Acetylcholinesterase (O42275 whole entry): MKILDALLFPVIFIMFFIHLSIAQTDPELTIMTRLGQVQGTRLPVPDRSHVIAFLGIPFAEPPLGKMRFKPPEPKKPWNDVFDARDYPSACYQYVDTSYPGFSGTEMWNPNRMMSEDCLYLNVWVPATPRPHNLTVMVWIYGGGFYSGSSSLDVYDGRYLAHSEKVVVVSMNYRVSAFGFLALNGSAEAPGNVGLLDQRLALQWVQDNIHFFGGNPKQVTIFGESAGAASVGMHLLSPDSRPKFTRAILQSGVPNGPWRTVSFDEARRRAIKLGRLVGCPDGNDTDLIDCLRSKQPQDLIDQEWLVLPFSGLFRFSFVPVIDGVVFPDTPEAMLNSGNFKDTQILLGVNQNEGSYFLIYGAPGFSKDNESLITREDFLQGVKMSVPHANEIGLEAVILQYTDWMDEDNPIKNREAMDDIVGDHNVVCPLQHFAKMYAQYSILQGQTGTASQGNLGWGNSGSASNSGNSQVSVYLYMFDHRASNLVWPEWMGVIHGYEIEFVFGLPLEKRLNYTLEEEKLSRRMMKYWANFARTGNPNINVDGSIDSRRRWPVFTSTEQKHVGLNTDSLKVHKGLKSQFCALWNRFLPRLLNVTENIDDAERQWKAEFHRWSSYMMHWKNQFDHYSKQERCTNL

O=C(NC(=S)Nc1cccc(Cl)c1Cl)c1cc2ccccc2oc1=O [1-(2-Oxo-2H-chromene-3-carbonyl)-3-(2,3-dichlorophenyl)thiourea (2d)]
IC50 [1]: 1.13 µM | IC50 [2]: 31.6 µM

O=C(NC(=S)Nc1ccc(Cl)cc1Cl)c1cc2ccccc2oc1=O [1-(2-Oxo-2H-chromene-3-carbonyl)-3-(2,4-dichlorophenyl)thiourea (2h)]
IC50 [1]: 6.21 µM | IC50 [2]: 13.2 µM

O=C(NC(=S)Nc1ccccc1Cl)c1cc2ccccc2oc1=O [1-(2-Oxo-2H-chromene-3-carbonyl)-3-(2-chlorophenyl)thiourea (2g)]
IC50 [1]: 7.28 µM | IC50 [2]: 11.1 µM

COc1ccccc1NC(=S)NC(=O)c1cc2ccccc2oc1=O [1-(2-Oxo-2H-chromene-3-carbonyl)-3-(2-methoxyphenyl)thiourea (2b)]
IC50 [1]: 13.3 µM | IC50 [2]: 0.06 µM

O=C(NC(=S)Nc1ccccc1[N+](=O)[O-])c1cc2ccccc2oc1=O [1-(2-Oxo-2H-chromene-3-carbonyl)-3-(2-nitrophenyl)thiourea (2j)]
IC50 [1]: 0.23 µM | IC50 [2]: 26.1 µM

O=C(NC(=S)Nc1ccc(F)c(Cl)c1)c1cc2ccccc2oc1=O [1-(2-Oxo-2H-chromene-3-carbonyl)-3-(3-chloro-4-fluorophenyl)thiourea (2f)]
IC50 [1]: 0.75 µM | IC50 [2]: 0.84 µM

O=C(NC(=S)Nc1cccc(Cl)c1)c1cc2ccccc2oc1=O [1-(2-Oxo-2H-chromene-3-carbonyl)-3-(3-chlorophenyl)thiourea (2e)]
IC50 [1]: 0.04 µM | IC50 [2]: 1.25 µM

O=C(NC(=S)Nc1cccc(F)c1)c1cc2ccccc2oc1=O [1-(2-Oxo-2H-chromene-3-carbonyl)-3-(3-fluorophenyl)thiourea (2c)]
IC50 [1]: 17.2 µM | IC50 [2]: 16.2 µM

COc1cccc(NC(=S)NC(=O)c2cc3ccccc3oc2=O)c1 [1-(2-Oxo-2H-chromene-3-carbonyl)-3-(3-methoxyphenyl)thiourea (2k)]
IC50 [1]: 8.43 µM | IC50 [2]: 53.2 µM

Cc1cccc(NC(=S)NC(=O)c2cc3ccccc3oc2=O)c1 [1-(2-Oxo-2H-chromene-3-carbonyl)-3-(3-methylphenyl)thiourea (2a)]
IC50 [1]: 0.86 µM | IC50 [2]: 2.15 µM

O=C(NC(=S)Nc1ccc(Cl)cc1)c1cc2ccccc2oc1=O [1-(2-Oxo-2H-chromene-3-carbonyl)-3-(4-chlorophenyl)thiourea (2i)]
IC50 [1]: 5.1 µM | IC50 [2]: 42.2 µM

O=C(NC(=S)NC1CCCCC1)c1cc2ccccc2oc1=O [1-(2-Oxo-2H-chromene-3-carbonyl)-3-(cyclohexyl)thiourea (2l)]
IC50 [1]: 6.97 µM | IC50 [2]: 12.2 µM
